Experimental data reported in patent publication US5210193A, “Piperazine derivatives” (American Cyanamid Company, priority 1990, dated 1993).
≈ marks a conversion by molar mass, not a printed value. Like-named read-outs stand apart in the source and are kept apart here.

Experiments:
[1] = test system: Enterobacter cloacae VGH 84-37; test: in vitro antibacterial MIC, agar plate dilution; type: cell-based; conditions: Enterobacter cloacae, VGH8437, 18 h, 35° C., read-out: MIC
In short: (§1)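 MIC, mcg/ml: lowest concentration with no visible growth after 18 h incubation at 35° C. Mueller-Hinton agar dilution plates; ~10^4 CFU inoculum via Steers replicating device.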

[2] = test system: Staphylococcus aureus Smith; test: in vitro antibacterial MIC, agar plate dilution; type: cell-based; conditions: 35° C.
In short: as §1

[3] = test system: Escherichia coli CMC 84-11; test: in vitro antibacterial MIC, agar plate dilution; type: cell-based; conditions: Escherichia coli, CMC8411, 18 h, 35° C., read-out: MIC
In short: as §1

[4] = test system: Proteus rettgeri CMC 84-41; test: in vitro antibacterial MIC, agar plate dilution; type: cell-based; conditions: Providencia rettgeri, CMC8441, 18 h, 35° C., read-out: MIC
In short: as §1

[5] = test system: Klebsiella pneumoniae AD; test: in vitro antibacterial MIC, agar plate dilution; type: cell-based; conditions: Klebsiella pneumoniae, 18 h, 35° C., read-out: MIC
In short: as §1

[6] = test system: Morganella morganii VGH 84-11; test: in vitro antibacterial MIC, agar plate dilution; type: cell-based; conditions: VGH8411, 18 hours, 35° C., read-out: MIC
In short: as §1

[7] = test system: Staphylococcus aureus ATCC 25913; test: in vitro antibacterial MIC, agar plate dilution; type: cell-based; conditions: ATCC25913, 18 hours, 35° C.
In short: as §1

[8] = test system: Pseudomonas aeruginosa VGH 84-4; test: in vitro antibacterial MIC, agar plate dilution; type: cell-based; conditions: Pseudomonas aeruginosa, VGH844, 18 h, 35° C., read-out: MIC
In short: as §1

[9] = test system: Enterobacter aerogenes VGH 84-36; test: in vitro antibacterial MIC, agar plate dilution; type: cell-based; conditions: Klebsiella aerogenes, VGH8436, 18 hours, 35° C., read-out: MIC
In short: as §1

[10] = test system: Escherichia coli ATCC 25922; test: in vitro antibacterial MIC, agar plate dilution; type: cell-based; conditions: Escherichia coli, ATCC25922, 18 h, 35° C., read-out: MIC
In short: as §1

[11] = test system: Klebsiella pneumoniae MOR 84-4; test: in vitro antibacterial MIC, agar plate dilution; type: cell-based; conditions: Klebsiella pneumoniae, MOR844, 18 h, 35° C., read-out: MIC
In short: as §1

[12] = test system: Klebsiella pneumoniae AD; test: in vivo antibacterial activity, survival of infected mice (Table II); parameters: species or system Charles River CD-1 mice; conditions: subcutaneous
Method: (§2) Charles River CD-1 mice were infected with either Klebsiella pneumoniae AD or Staphylococcus aureus Smith. A single subcutaneous dose of the test compound was administered 1/2 hour after infection. […] The results appear in Tables II and III, wherein the representative test compounds are identified by the number of their hereinafter described examples.

[13] = test system: Staphylococcus aureus Smith; test: in vivo antibacterial activity, survival of infected mice (Table III); parameters: species or system Charles River CD-1 mice; conditions: subcutaneous
Method: as §2

[14] = test system: Acinetobacter calcoaceticus MOR 84-43; test: in vitro antibacterial MIC, agar plate dilution; type: cell-based; conditions: MOR8443, 18 hours, 35° C., read-out: MIC
In short: as §1

[15] = test system: Escherichia coli PRNT 311; test: in vitro antibacterial MIC, agar plate dilution; type: cell-based; conditions: PRNT311, 18 hours, 35° C., read-out: MIC
In short: as §1

[16] = test system: Escherichia coli NAR 311; test: in vitro antibacterial MIC, agar plate dilution; type: cell-based; conditions: NAR311, 18 hours, 35° C., read-out: MIC
In short: as §1

[17] = test system: Staphylococcus aureus CMC 83-128; test: in vitro antibacterial MIC, agar plate dilution; type: cell-based; conditions: CMC83128, 18 hours, 35° C., read-out: MIC
In short: as §1

[18] = test system: Staphylococcus Spp saprophiticus VGH 84-50; test: in vitro antibacterial MIC, agar plate dilution; type: cell-based; conditions: 18 hours, 35° C., read-out: MIC
In short: as §1

[19] = test system: Enterobacter cloacae K 84-10; test: in vitro antibacterial MIC, agar plate dilution; type: cell-based; conditions: Enterobacter cloacae, K8410, 18 h, 35° C., read-out: MIC
In short: as §1

[20] = test system: Escherichia coli CMC 84-16; test: in vitro antibacterial MIC, agar plate dilution; type: cell-based; conditions: Escherichia coli, CMC8416, 18 h, 35° C., read-out: MIC
In short: as §1

[21] = test system: Staphylococcus epidermidis CMC 83-135; test: in vitro antibacterial MIC, agar plate dilution; type: cell-based; conditions: CMC83135, 18 hours, 35° C., read-out: MIC
In short: as §1

[22] = test system: Staphylococcus epidermidis IO 83-58; test: in vitro antibacterial MIC, agar plate dilution; type: cell-based; conditions: IO8358, 18 hours, 35° C., read-out: MIC
In short: as §1

[23] = test system: Serratia marcescens K 84-18; test: in vitro antibacterial MIC, agar plate dilution; type: cell-based; conditions: Serratia marcescens, K8418, 18 h, 35° C., read-out: MIC
In short: as §1

[24] = test system: Staphylococcus aureus CMC 83-127; test: in vitro antibacterial MIC, agar plate dilution; type: cell-based; conditions: Staphylococcus aureus, CMC83127, 18 h, 35° C., read-out: MIC
In short: as §1

[25] = test system: Staphylococcus aureus VGH 84-46; test: in vitro antibacterial MIC, agar plate dilution; type: cell-based; conditions: 18 hours, 35° C.
In short: as §1

[26] = test system: Morganella morganii CMC 84-37; test: in vitro antibacterial MIC, agar plate dilution; type: cell-based; conditions: Morganella morganii, CMC8437, 18 h, 35° C., read-out: MIC
In short: as §1

[27] = test system: Staphylococcus aureus ATTC 29213; test: in vitro antibacterial MIC, agar plate dilution; type: cell-based; conditions: Staphylococcus aureus, ATTC29213, 18 h, 35° C., read-out: MIC
In short: as §1

[28] = test system: Staphylococcus epidermidis VGH 84-40; test: in vitro antibacterial MIC, agar plate dilution; type: cell-based; conditions: VGH8440, 18 hours, 35° C., read-out: MIC
In short: as §1

[29] = test system: Serratia marcescens F 0-35; test: in vitro antibacterial MIC, agar plate dilution; type: cell-based; conditions: Serratia marcescens, F035, 18 h, 35° C., read-out: MIC
In short: as §1

[30] = test system: Pseudomonas aeruginosa LL-1244; test: in vitro antibacterial MIC, agar plate dilution; type: cell-based; conditions: Pseudomonas aeruginosa, LL1244, 18 h, 35° C., read-out: MIC
In short: as §1

[31] = test system: Staphylococcus aureus VGH 84-45; test: in vitro antibacterial MIC, agar plate dilution; type: cell-based; conditions: Staphylococcus aureus, VGH8445, 18 h, 35° C., read-out: MIC
In short: as §1

[32] = test system: Streptococcus faecalis ATTC 29212; test: in vitro antibacterial MIC, agar plate dilution; type: cell-based; conditions: Enterococcus faecalis, ATTC29212, 18 hours, 35° C., read-out: MIC
In short: as §1

[33] = test system: Streptococcus faecalis VGH 84-65; test: in vitro antibacterial MIC, agar plate dilution; type: cell-based; conditions: Enterococcus faecalis, VGH8465, 18 h, 35° C., read-out: MIC
In short: as §1

CCn1cc(C(=O)O)c(=O)c2cc(F)c(N3CCNC(c4cc5cc(Cl)ccc5o4)C3)cc21 (stereo not drawn) [Example 18, 7-[3-(5-Chloro-2-benzofuranyl)-1-piperazinyl]-1-ethyl-6-fluoro-1,4-dihydro-4-oxo-3-quinolinecarboxylic acid]
MIC [1]: 16 µg/mL (≈ 34 µM)
MIC ([2]; Staphylococcus aureus, 18 h, read-out: MIC): ≤ 0.12 µg/mL
MIC [3]: 16 µg/mL (≈ 34 µM)
MIC [4]: 16 µg/mL (≈ 34 µM)
MIC [5]: 16 µg/mL (≈ 34 µM)
MIC [6]: 16 µg/mL (≈ 34 µM)
MIC [7]: 2 µg/mL (≈ 4.26 µM)
MIC [8]: > 256 µg/mL
MIC [9]: 128 µg/mL (≈ 272 µM)
MIC [10]: 16 µg/mL (≈ 34 µM)
MIC [11]: 32 µg/mL (≈ 68.1 µM)
Survival Ratio 7 Days After Infection ([12]; 0.25 mg/kg single dose): 0/5
Survival Ratio 7 Days After Infection ([12]; 1 mg/kg single dose): 0/5
Survival Ratio 7 Days After Infection ([12]; 4 mg/kg single dose): 1/5
Survival Ratio 7 Days After Infection ([12]; 16 mg/kg single dose): 4/5
Survival Ratio 7 Days After Infection ([12]; 64 mg/kg single dose): 5/5
Survival Ratio 7 Days After Infection ([13]; 0.5 mg/kg single dose): 0/5
Survival Ratio 7 Days After Infection ([13]; 1 mg/kg single dose): 0/5
Survival Ratio 7 Days After Infection ([13]; 2 mg/kg single dose): 0/5
Survival Ratio 7 Days After Infection ([13]; 4 mg/kg single dose): 0/5
Survival Ratio 7 Days After Infection ([13]; 8 mg/kg single dose): 2/5

CCn1cc(C(=O)O)c(=O)c2cc(F)c(N3CCNC(CF)C3)c(F)c21 (single isomer, unassigned; (-)) [Example 64, (-)-N-Ethy6,8-difluoro-7-[3-(fluoromethyl)-1-piperazinyl]-1,4-dihydro-4-oxo-3-quinolinecarboxylic acid]
MIC [14]: 0.5 µg/mL (≈ 1.35 µM)
MIC [15]: 0.06 µg/mL (≈ 0.162 µM)
MIC [16]: 1 µg/mL (≈ 2.71 µM)
MIC [17]: 0.25 µg/mL (≈ 0.677 µM)
MIC [1]: 0.06 µg/mL (≈ 0.162 µM)
MIC ([2]; 18 hours): 0.12 µg/mL (≈ 0.325 µM)
MIC [3]: 0.03 µg/mL (≈ 0.0812 µM)
MIC [18]: 1 µg/mL (≈ 2.71 µM)
MIC [4]: 0.25 µg/mL (≈ 0.677 µM)
MIC [19]: 0.06 µg/mL (≈ 0.162 µM)
MIC [20]: 0.03 µg/mL (≈ 0.0812 µM)
MIC [5]: 0.06 µg/mL (≈ 0.162 µM)
MIC [6]: 0.12 µg/mL (≈ 0.325 µM)
MIC [21]: 0.25 µg/mL (≈ 0.677 µM)
MIC [22]: 0.25 µg/mL (≈ 0.677 µM)
MIC [23]: 0.25 µg/mL (≈ 0.677 µM)
MIC [24]: 0.06 µg/mL (≈ 0.162 µM)
MIC [25]: 0.12 µg/mL (≈ 0.325 µM)
MIC [26]: 0.06 µg/mL (≈ 0.162 µM)
MIC [27]: 0.25 µg/mL (≈ 0.677 µM)
MIC [8]: 2 µg/mL (≈ 5.42 µM)
MIC [28]: 0.25 µg/mL (≈ 0.677 µM)
MIC [29]: 0.5 µg/mL (≈ 1.35 µM)
MIC [9]: 0.12 µg/mL (≈ 0.325 µM)
MIC [10]: 0.03 µg/mL (≈ 0.0812 µM)
MIC [30]: 8 µg/mL (≈ 21.7 µM)
MIC [11]: 0.06 µg/mL (≈ 0.162 µM)
MIC [31]: 0.12 µg/mL (≈ 0.325 µM)
MIC [32]: 4 µg/mL (≈ 10.8 µM)
MIC [33]: 4 µg/mL (≈ 10.8 µM)
